# Reference: a melting point compilation (Tetko et al.; mined from patent text by program, amines drawn as free bases though some values may be those of a salt)
row,SMILES,melting point
1,Cc1ccc(N2C(=O)C(O)=C(C(=O)c3ccc(C(C)C)cc3)C2c2ccc(OC(C)C)cn2)nn1 (centres undefined),243 to 245 °C
2,CC(C)(C)c1cc(SC2CC(=O)OC2=O)cc(C(C)(C)C)c1O (centres undefined),92 to 93 °C
3,CCCCC(=O)NCc1ccc(C#CCCOCCCCCCNCc2ccccc2)cc1,66 to 67 °C
4,O=S1(=O)NCN(C2CC2)c2cc(Br)cc(Br)c21,203 to 205 °C
5,CC12CCC3C(=C1CCC2=O)C=CC1=CC(=O)CCC13CO (centres undefined),264 to 265 °C
6,COC(=O)c1ccc(-c2nc(-c3ccc4c(c3)C(C)(C)CCC4(C)C)no2)cc1,166 to 168 °C
7,CNC(=O)NC1=NC(=CCC(=O)Nc2ccc(Cl)cc2)CS1,203 to 205 °C
8,CO/C(=C\C=C\c1cc2ccccc2[nH]1)C(=O)NCc1ccccc1,204 to 205 °C
9,CCOC(=O)COc1ccc(C(=O)c2ccc(O)cc2)c(Cl)c1Cl,127 to 129 °C
10,CCCCc1nc2c(N)nc3cc(Br)ccc3c2n1CC(C)C,198 to 200 °C
11,COC(C)(C)C(=O)COc1ccc(Cl)cc1Cl,45.5 to 47.5 °C
12,O=C1Nc2cc(Cl)c(Cl)cc2N2CCNC[C@H]12,136 to 138 °C
13,CCOC(OCC)c1c(C#N)cnn1-c1cc(SC)n(C)n1,154 to 158 °C
14,O=C(O)CCCCc1ccc(NS(=O)(=O)c2ccc(Cl)cc2)cn1,145 to 147 °C
15,CCCc1c(OCCCOc2cc(NC(=O)c3nnn[nH]3)c(C)cc2Br)ccc(C(C)=O)c1O,63 to 65 °C
16,COC(=O)c1cc(C(C)O)c(C(F)(F)F)cc1NC(C)=O (centres undefined),120 to 122 °C
17,O=C(NO)c1ccc(CNC(=O)c2[nH]c(-c3ccc(F)cc3)cc2-c2ccc(F)cc2)cc1,219 to 220 °C
18,COCC(NC(C)C)c1c[nH]c2cccc(Oc3ccc(Cl)cc3)c12 (centres undefined),149 to 150 °C
19,COC(=O)c1ccc(N2CCOCC2)c(NC(=N)N)c1,152 to 154 °C
20,FC(F)(F)c1cc(Nc2nc3ccccc3o2)cc(C(F)(F)F)c1,178 to 180 °C
21,CNC(=O)CCn1ncccc1=O,94 to 96 °C
22,COc1cc(OCCN2CCN(C)CC2)ccc1/C=C/c1cc(/C=C/c2ccc3cc[nH]c3c2)n[nH]1,134 to 142 °C
23,CS(=O)(=O)c1ccc(-c2cnn(CC(F)(F)F)c(=O)c2Cc2ccccc2)cc1,112 to 114 °C

row,SMILES,melting point
1,Oc1ccc2ccccc2c1C1NCCc2ccccc21 (centres undefined),148 to 150 °C
2,COc1c(C)c(C=O)c(OC)c2ccccc12,95 to 96 °C
3,Cn1cncc1C(O)(c1ccc(F)cc1)c1ccc2nc(Cl)nc(-c3cccc(Cl)c3)c2c1 (centres undefined),212 °C
4,COC(=O)c1cccc2c(SC(F)(F)F)c(OC)ccc12,93 to 94 °C
5,Cc1cc(=O)oc2cccc(OC(=S)N(C)C)c12,166 to 168 °C
6,CCc1nn(C(=O)CCCN2CCOCC2)c(CC)c1CCCCCCOc1ccc(OC)cc1Cl,93 to 95 °C
7,CC1=NC=C(c2ccc3c(c2)NC(=O)CO3)C(c2ccccc2)S1 (centres undefined),187 to 189 °C
8,COc1ccc2nc(C)cc(-n3cncn3)c2c1,117 to 118 °C
9,COc1ccc(NC(=O)Oc2ccc3c(c2)N(Cc2ccccc2)CCC3)cc1,170 °C
10,CCSCC12CCC(=O)C=C1CCC1C3CC(CC)C(=O)C3(C)CCC12 (centres undefined),73 °C
11,CCN(CC)C(=O)Oc1cc(CN/C=C2\C(=O)NC(=O)c3ccc(I)cc32)ccc1OC,128 to 130 °C
12,CNc1c(C)cc([N+](=O)[O-])cc1C,99 °C
13,Nc1ccc(N(CCO)C(=O)OCc2ccccc2)c(O)c1,142 °C
14,CCOC(=O)C1=C(C)NC(C)=C(C(=O)OCCBr)C1c1cccc([N+](=O)[O-])c1 (centres undefined),158 to 159 °C
15,COC(=O)c1nc(Br)nc(Br)c1Cl,92 to 93 °C
16,COc1ccc(C=CC(=O)c2c(OC)cc(OC)cc2OC(=O)CCCC(=O)O)cc1,131 to 132 °C
17,CN(C)CC(=O)N1CCN2C(=O)N(c3cc(Cl)cc(Cl)c3)C(=O)C2(Cc2ccc(Br)cc2)C1 (centres undefined),73.5 °C
18,O=C(O)c1ccc(-c2nc(-c3ccccc3C(F)(F)F)cs2)cc1,225 to 227 °C
19,Cc1cccc(C)c1NC(=O)N=C1CCCCCN1C,128 to 130 °C
20,CCOC(=O)c1sc(N)nc1CC,177 to 179 °C
21,COCCNC(=O)Nc1c(C)c(C)c2c(c1C)C(c1ccc(C(C)C)cc1)CO2 (centres undefined),172 to 173 °C
22,Cc1coc2ccc(C#N)cc12,73 °C
23,COC(=O)c1ccc(NC(=O)[C@H](Cc2ccc(-c3ccccc3)cc2)NCP(=O)(OC)OC)cc1,128 to 129 °C

row,SMILES,melting point
1,COCc1ncccc1CN(CCn1ccc2occc2c1=O)Cc1ccc2c(c1)NC(=O)C(C)(C)C(=O)N2CC(C)C,149 to 151 °C
2,O=C1CCCC2=C1C(c1cccc(Br)c1)C1=C(CCCC1)N2 (centres undefined),258 to 260 °C
3,C=CCc1oc2c(OC)cccc2c1CC(=O)OC,65 to 66 °C
4,Cc1cc(C)cc(-c2nnc(C(N)=O)o2)c1,230 °C
5,O=c1c2ccccc2nc(-c2ccccc2)n1CCN1CCC(c2c[nH]c3ccccc23)CC1,191 °C
6,Cn1c(COc2ccc(C#N)cc2)nc2nc(CO)ccc21,172 °C
7,O=C1CCC(c2c[nH]c3ccccc23)CC1,123 to 125 °C
8,CC1(C)Oc2ccc(C#N)cc2[C@@H](NC(=O)c2ccc(Cl)cc2)[C@@H]1O (relative stereo),226 to 229 °C
9,O=C(Nc1ccc2ccc(Cl)nc2n1)c1ccncc1,220 °C
10,CC(O)(C(O)CBr)C(O)CBr (centres undefined),78 to 80 °C
11,CCc1c(O)c(C(C)=O)cc2c1OC(C)(C)CC2C (centres undefined),104 to 106 °C
12,CCOc1ncccc1OCC1(c2onc(-c3ccc(O)cc3)c2-c2ccccc2)CC1,190 to 192 °C
13,COC(=O)C1=C(O)CCc2ccc(OC)cc21,48 to 48.5 °C
14,CCCc1c(OCCCOc2c(C(C)=O)ccc(OCCCC(=O)O)c2CCC)ccc(C(C)=O)c1O,96 to 99 °C
15,C=C1C(=O)OC2OC3(C)CCC4C(C)CCC1C24OO3 (centres undefined),161 to 162 °C
16,COC(=O)c1ccc2c(c1)SC(c1ccccc1)C(c1ccc3c(c1)NC(=O)CO3)=C2 (centres undefined),217 to 219 °C
17,COc1c(C)ccc(C(C)C)c1CO,100 to 101 °C
18,Cc1cc(Cl)cc(C(=O)NNCC(=O)NCc2ccccc2)c1NC(=O)c1cc(Br)nn1-c1ncccc1Cl,120 to 121 °C
19,N#CCN1CCC(c2noc3cc(F)ccc23)CC1,130 to 132 °C
20,CN1C(=N)c2c(Cl)cccc2S1(=O)=O,92.5 to 95 °C
21,CC(C)(OC(=O)c1ccccc1)c1nccc2ccccc12,116 to 119 °C

# Other lines, results leading:
row,melting point,SMILES
1,151 to 153 °C,O=c1nc(-c2cccc(CN3CCC(O)(c4ccc(Cl)cc4)CC3)n2)sc2ccccc12
2,138 to 142 °C,CN1CCC(=C2c3cc(Br)ccc3C=Cn3cccc32)CC1
3,171 to 172 °C,CCN(CC)CCCNc1nnc(C)c2c1cc1n2CCCC1
4,138 °C,Fc1c(OCc2ccccc2)ccc(-c2ncc(Br)cn2)c1F
5,174 to 175 °C,Cc1c(S(C)(=O)=O)cc([N+](=O)[O-])c(Cl)c1[N+](=O)[O-]
6,225 to 250 °C,C[C@@H](NC(=O)c1c[nH]c2ncc(-c3nn(CCO)c4cc(Cl)ccc34)nc12)C(=O)N1CC(C#N)C1
7,158 to 159 °C,O=C(O)c1snnc1C1CC1
8,160 to 162 °C,CN(C)S(=O)(=O)c1cc2c(c(C(=O)Cl)c1)OCCO2
9,168 to 169 °C,O=C(Cc1cn(-c2ccccc2)nc1-c1ccc(Cl)cc1)NO
10,204 °C,CC(=O)OC1CSC(Oc2ccc(-c3ccc(Cl)nc3)nc2)C(OC(C)=O)C1OC(C)=O (centres undefined)
11,180 to 182 °C,CS(=O)(=O)c1ccc(-c2cnn(-c3ccc(F)cc3)c(=O)c2Cc2ccccc2)cc1
12,140 to 143 °C,C#CC1=Cc2ccccc2Sc2ccc(S(C)(=O)=O)cc21
13,168 to 171 °C,Nc1ccc2c(c1)C(=O)CC2
14,215 °C,CCCCc1nc(Sc2ccccc2)c(CO)n1Cc1ccc(-c2ccccc2C(=O)O)cc1
15,127 to 130 °C,CCOC(=O)Nc1cc(C(=O)NC(C)C)c(Cl)cc1F
16,129 to 130 °C,CC(C)(C)Oc1ccc(OC(=O)N2CCOCC2)cc1
17,113 to 115 °C,Cc1ccc(-c2nc(Cl)c3ccccc3n2)cc1
18,> 300 °C,O=C1Nc2cc(NC(=O)c3c[nH]cc(-c4ccc(F)cc4)c3=O)c(F)cc2/C1=C/c1ccc[nH]1
19,198 to 199 °C,Cc1sc(-c2ccc(Cl)cc2)nc1O

row,melting point,SMILES
1,262 to 265 °C,O=c1cc(-c2ccc(CO)cc2)oc2ccc(O)cc12
2,184 to 185 °C,CS(=O)(=O)Nc1c(C(=O)c2cccc(Br)c2)[nH]c2cc(Cl)ccc12
3,140 to 142 °C,N#CCCNC(=O)C1=CC(CF)(CF)Oc2ccc(Br)cc21
4,117 to 118 °C,COc1ccc(C(=O)Cc2ccc(OC)c(F)c2)cc1
5,332 to 335 °C,O=c1c2c([nH]c3nc(NCc4ccccc4)nn13)CCCS2
6,350 °C,Cn1c2ccc(Cl)cc2c(=O)n2nc(C#N)cc12
7,147 to 148 °C,CCc1nc2c(-c3cc4c(cc3C)OCC4)ncnc2n1C(C1CC1)C1CC1
8,108 to 113 °C,O[C@@H](CNCCOc1ccc2oc(-c3noc(C(F)(F)F)n3)cc2c1)COc1ccccc1
9,251 to 254 °C,CC1=CC2=C(N3CN(N4CCOCC4)C=C3N=N2)N(c2ccccc2Cl)C1
10,173 to 175 °C,O=C1Cc2ccc(-c3ccccc3)cc2N1
11,55 to 57 °C,CC1CN(c2ccncc2Oc2ccccc2)CCN1 (centres undefined)
12,197 to 199 °C,O=C(O)c1ccc2cc(OCCN3CCN(c4ccc(Cl)cc4)CC3)ccc2c1
13,208 to 210 °C,N#CCCCC#Cc1cc(F)c2ncc(C(=O)NCc3ccc(Cl)cc3)c(O)c2c1
14,46 to 47 °C,C#CC(O)COc1ccc(F)cc1 (centres undefined)
15,87 to 89 °C,C=C(CC)C(=O)c1ccc(OCCCC(=O)O)c(Cl)c1Cl
16,> 280 °C,CCOC(=O)Cn1c(=O)[nH]c(=O)c2cc(Cl)c(Cl)cc21
17,178 to 179 °C,COc1cc(NC(=O)CN2CCOCC2)c(Cl)cc1Cn1nc(-c2ccc(C(F)(F)F)cc2)oc1=O
18,93 to 95 °C,CCCc1nc(C(C)=O)c(C#N)[nH]1
